Reference: the supplement of paper PMC11061612

Tests used:
Assay in all cases: combination Emax (second highest fraction inhibited in the dose matrix, 72 h); higher = more inhibition; extreme values may be limits of the assay
[1] = tested on: B-CPAP (Thyroid Gland Carcinoma)
Outline: (§1)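 Bliss excess equals the observed combination effect minus the expected value EA + EB − EA·EB, where EA and EB are the effects of each agent alone. Combination Emax is the second-highest inhibition within the matrix. Inhibition was scaled from CellTiter-Glo 2.0 luminescence, with 0 set by vehicle wells and 1 by blank wells, after 72 hours of two-drug dosing of cells plated in 1536-well plates.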

[2] = tested on: ME-1 (Acute Myeloid Leukemia)
Outline: as §1

[3] = tested on: HuP-T4 (Pancreatic Carcinoma)
Outline: as §1

[4] = tested on: KELLY (Neuroblastoma)
Outline: as §1

[5] = tested on: Calu-3 (Lung Adenocarcinoma)
Outline: as §1

[6] = tested on: CCRF-CEM (T-Lymphoblastic Leukemia)
Outline: as §1

[7] = tested on: UM-UC-3 (Bladder Carcinoma)
Outline: as §1

[8] = tested on: COLO-205 (Colorectal Carcinoma)
Outline: as §1

[9] = tested on: CaR-1 (Colorectal Carcinoma)
Outline: as §1

[10] = tested on: HCC1806 (Breast Carcinoma)
Outline: as §1

[11] = tested on: RC-K8 (B-Cell Non-Hodgkin's Lymphoma)
Outline: as §1

[12] = tested on: SK-ES-1 (Ewing's Sarcoma)
Outline: as §1

[13] = tested on: EC-GI-10 (Esophageal Squamous Cell Carcinoma)
Outline: as §1

[14] = tested on: HT-1376 (Bladder Carcinoma)
Outline: as §1

[15] = tested on: LS-180 (Colorectal Carcinoma)
Outline: as §1

[16] = tested on: DoTc2-4510 (Cervical Carcinoma)
Outline: as §1

[17] = tested on: Daoy (Other Solid Carcinomas)
Outline: as §1

[18] = tested on: HCC-78 (Lung Adenocarcinoma)
Outline: as §1

[19] = tested on: LNCaP-Clone-FGC (Prostate Carcinoma)
Outline: as §1

[20] = tested on: NCI-H2085 (Non-Small Cell Lung Carcinoma)
Outline: as §1

Structure (SMILES)	combination Emax [1]	combination Emax [2]	combination Emax [3]	combination Emax [4]	combination Emax [5]	combination Emax [6]	combination Emax [7]	combination Emax [8]	combination Emax [9]	combination Emax [10]	combination Emax [11]	combination Emax [12]	combination Emax [13]	combination Emax [14]	combination Emax [15]	combination Emax [16]	combination Emax [17]	combination Emax [18]	combination Emax [19]	combination Emax [20]
CN(C)CCCOc1ccc(-c2ccc3ncc4c(c3c2)n(C2CCOCC2)c(=O)n4C)cn1 [AZD0156] + O=C(c1cc(Cc2n[nH]c(=O)c3ccccc23)ccc1F)N1CCN(C(=O)C2CC2)CC1 [Olaparib] (first compound max 3 µM, partner max 3 µM)	0.34	0.224	0.289	0.607	0.184	0.46	0.289	0.365	0.207	0.479	0.318	0.804	0.436	0.115	0.24	0.206	0.427	0.448	0.639	0.224
C=CCn1c(=O)c2cnc(Nc3ccc(N4CCN(C)CC4)cc3)nc2n1-c1cccc(C(C)(C)O)n1 [AZD1775] + C1CN(CCC1(C(=O)N[C@@H](CCO)C2=CC=C(C=C2)Cl)N)C3=NC=NC4=C3C=CN4 [Capivasertib] (first compound max 3 µM, partner max 3 µM)	0.815	0.685	0.691	1	0.466	1	0.464	0.832	0.69	0.933	0.652	0.883	0.965	0.355	0.734	0.723	0.999	0.626	1	0.631
CN(CCO)CC[C@H](CSc1ccccc1)Nc1ccc(S(=O)(=O)NC(=O)c2ccc(N3CCC([C@@H](O)c4ccccc4-c4ccc(Cl)cc4)CC3)cc2)cc1S(=O)(=O)C(F)(F)F [AZD4320] + C1CN(CCC1(C(=O)N[C@@H](CCO)C2=CC=C(C=C2)Cl)N)C3=NC=NC4=C3C=CN4 [Capivasertib] (first compound max 1 µM, 7x7, partner max 3 µM)	0.284	1	0.0723	0.229	0.124	1	0.196	0.831	0.21	0.212	0.552	0.94	0.204	0.74	0.213	0.59	0.249	0.31	0.97	0.289
CN(CCO)CC[C@H](CSc1ccccc1)Nc1ccc(S(=O)(=O)NC(=O)c2ccc(N3CCC([C@@H](O)c4ccccc4-c4ccc(Cl)cc4)CC3)cc2)cc1S(=O)(=O)C(F)(F)F [AZD4320] + C=CCn1c(=O)c2cnc(Nc3ccc(N4CCN(C)CC4)cc3)nc2n1-c1cccc(C(C)(C)O)n1 [AZD1775] (first compound max 1 µM, partner max 1 µM)	0.632	1	0.395	1	0.182	1	0.276	0.902	0.241	0.972	0.934	1	0.903	0.718	0.422	0.884	0.99	0.232	0.773	0.585
CN(CCO)CC[C@H](CSc1ccccc1)Nc1ccc(S(=O)(=O)NC(=O)c2ccc(N3CCC([C@@H](O)c4ccccc4-c4ccc(Cl)cc4)CC3)cc2)cc1S(=O)(=O)C(F)(F)F [AZD4320] + CCN(CCO)CCCOc1ccc2c(Nc3cc(CC(=O)Nc4cccc(F)c4)[nH]n3)ncnc2c1 [AZD2811] (first compound max 1 µM, 7x7, partner max 1 µM)	0.57	1	0.274	0.892	0.168	1	0.226	0.974	0.208	0.201	0.917	1	0.401	0.784	0.18	0.735	0.715	0.2	0.245	0.692
